≈ marks a conversion by molar mass, not a printed value. Where two headings read alike, the source gives them in different places.
How the values were obtained:
[1] = tested on: spontaneously diabetic rats (ZDF-Lepr^fa/CrlCrlj); assay: Blood glucose lowering activity test (Test Example 6); type: in vivo, rat; conditions: for Area under blood glucose curve: 0 to 6 hours after oral administration, fasting, Form I crystal 10 mg/kg, Compound II 8.3 mg/kg (equivalent as free form), average of five
Method: Male, 9-week-old, spontaneously diabetic rats (ZDF-Lepr^fa/CrlCrlj) were used.
A crystal of the compound of the present invention in the form of the Form I crystal at 10 mg/kg or the free form thereof in the form of Compound II at 8.3 mg/kg (calculated based on the free form, corresponding to the equivalent of 10 mg/kg of the Form I crystal) was respectively suspended in a 20% aqueous HP-β-cyclodextrin solution (hereinafter referred to as “vehicle”) and orally administered under fasting conditions.
Blood glucose levels were measured in accordance with ordinary methods before administration of the compounds (at 0 hour) and at 0.5, 1, 2, 4 and 6 hours after administration. Namely, the tips of the rat tails (about 1 mm) were severed and blood collected with hematocrit tubes subjected to anticoagulation treatment with heparin were centrifuged followed by measuring the resulting plasma with the Glucoroder F (A&T Corporation). The areas under blood glucose curves from 0 to 6 hours after administration were calculated using the resulting blood glucose values.
The results of a blood glucose lowering activity test on each group administered with the Form I crystal, Compound II or vehicle only were as shown in Table 8.
Furthermore, the values shown in Table 8 are all the average values of test result values obtained using five spontaneously diabetic rats (ZDF-Lepr^fa/CrlCrlj).

[2] = Solubility test (Test Example 4); type: physicochemical; conditions: 4 mg in 2 mL; for solubility at 30 min: 37 °C, thermodynamic from solid, read-out: Concentration (solubility); for Concentration (solubility): 37° C., 30 minutes
Method: The Form I crystal (4 mg), the Form II crystal (4 mg) and Compound II (4 mg) were respectively dissolved in 2 mL of water, Japanese Pharmacopoeia Elution Test Solution 1 (JP1), Japanese Pharmacopoeia Elution Test Solution 2 (JP2), Fasted State Simulated Intestinal Fluid (FaSSIF) and Fed State Simulated Intestinal Fluid (FeSSIF). After stirring vigorously for 30 seconds every 5 minutes in a constant temperature water bath at 37° C., a portion of the supernatant was sampled 30 minutes later and filtered with a syringe filter. The filtrate was suitably diluted for use as the sample solution.
The sample solution was measured using HPLC under the following conditions.
HPLC system: Waters Alliance
Column: Waters, XBridge C18 3.5 μm
Column temperature: 40° C.
Solvent A: 5 mM aqueous ammonium hydrogencarbonate solution
The gradient program is as indicated below.

[3] = Hygroscopicity test (Test Example 3); type: physicochemical; conditions: 25° C., 10 to 90% RH
Method: The sample was weighed in a glass sample cup, and weight was measured under the conditions indicated below.
Measuring instrument: SGA-100 (VTI Corp.)
Measuring temperature: 25° C.
Minimum exposure time: 15 min
Maximum exposure time: 120 min
Step transition condition: within 0.03 wt %
The appearance of the sample was observed following completion of measurement.

[4] = Evaluation of in vivo absorption
[5] = Fed State Simulated Intestinal Fluid (FeSSIF)
[6] = Japanese Pharmacopoeia Elution Test Solution 2 (JP2)
[7] = Fasted State Simulated Intestinal Fluid (FaSSIF)
[8] = Japanese Pharmacopoeia Elution Test Solution 1 (JP1)

| SMILES | Area under blood glucose curve [1] [mg/dl × hr] | solubility at 30 min ([2]; Fasted State Simulated Intestinal Fluid (FaSSIF), fassif, Fasted State Simulated Intestinal Fluid (FaSSIF)) [µg/mL] | Concentration (solubility) [2, 5] [µg/mL] | solubility at 30 min ([2]; Japanese Pharmacopoeia Elution Test Solution 1 (JP1), pH 1.2, simulated gastric fluid, Japanese Pharmacopoeia Elution Test Solution 1 (JP1)) [µg/mL] | Concentration (solubility) [2, 6] [µg/mL] | Concentration (solubility) ([2]; Water) [µg/mL] | Hygroscopicity (moisture sorption-desorption behavior) [3] | Blood glucose lowering activity compared with Compound II ([1]; oral, 10 mg/kg Form I crystal vs 8.3 mg/kg Compound II) | Concentration (solubility) [2, 7] [µg/mL] | Concentration (solubility) [2, 8] [µg/mL] | Blood concentrations in comparison with Compound II [4] |
| --- | --- | --- | --- | --- | --- | --- | --- | --- | --- | --- | --- |
| C[C@H]1CN=C(c2ccc(-c3cc(Oc4cnc(S(C)(=O)=O)cn4)cc(O[C@@H](C)CO)c3)[nH]2)O1 [Compound II, (2S)-2-(3-{5-[(5S)-5-Methyl-4,5-dihydro-1,3-oxazol-2-yl]-1H-pyrrol-2-yl}-5-{[5-(methylsulfonyl)pyrazin-2-yl]oxy}phenoxy)propan-1-ol, reference compound] | 661.8 ± 26.9 | 12 (≈ 25.4 µM) | 222 | > 1500 | 5.87 | 5.59 | – | – | – | – | – |
| C[C@H]1CN=C(c2ccc(-c3cc(Oc4cnc(S(C)(=O)=O)cn4)cc(O[C@@H](C)CO)c3)[nH]2)O1 [Form I crystal, (2S)-2-(3-{5-[(5S)-5-Methyl-4,5-dihydro-1,3-oxazol-2-yl]-1H-pyrrol-2-yl}-5-{[5-(methylsulfonyl)pyrazin-2-yl]oxy}phenoxy)propan-1-ol monomethanesulfonate] | 529.0 ± 24.5 | – | 1145 | – | 11.8 | >1500 | did not demonstrate hygroscopicity | superior to that of the free form | 20.4 | >1500 | high blood concentrations in comparison with Compound II |
| C[C@H]1CN=C(c2ccc(-c3cc(Oc4cnc(S(C)(=O)=O)cn4)cc(O[C@@H](C)CO)c3)[nH]2)O1 [Form II crystal, (2S)-2-(3-{5-[(5S)-5-Methyl-4,5-dihydro-1,3-oxazol-2-yl]-1H-pyrrol-2-yl}-5-{[5-(methylsulfonyl)pyrazin-2-yl]oxy}phenoxy)propan-1-ol monomethanesulfonate] | – | – | 1381 | – | 14.1 | >1500 | did not demonstrate hygroscopicity | – | 20.5 | >1500 | high blood concentrations in comparison with Compound II |

From patent publication US20140121220A1, “CRYSTALS OF PHENYLPYRROLE DERIVATIVE” (Daiichi Sankyo Company, Limited, priority 2011, published 2014)
